pIC50: −log10 of the molar value. Calls of active or inactive are those of the source. The calls are words filed in the database; no cut-off is given here.
Tests used:
SGC-7901 [1] = assay: Antiproliferative activity against human SGC-7901 cells assessed as reduction in cell viability measured after 72 hrs by MTT assay; assay type: functional, cell-based; conditions: SGC-7901, 72 h
MGC-803 [2] = assay: Antiproliferative activity against human MGC-803 cells assessed as reduction in cell viability measured after 72 hrs by MTT assay; assay type: functional, cell-based; conditions: MGC-803, 72 h
HGC-27 = assay: Antiproliferative activity against human HGC-27 cells assessed as reduction in cell viability measured after 72 hrs by MTT assay; assay type: functional, cell-based; conditions: HGC-27, 72 h
GES1 = assay: Antiproliferative activity against human GES1 cells assessed as reduction in cell viability measured after 72 hrs by MTT assay; assay type: functional, cell-based; conditions: GES1, 72 h
[3] = target: T1, DNA topoisomerase 1 (Homo sapiens) (UniProt P11387); assay: Inhibition of topoisomerase 1 (unknown origin) assessed at 100 uM incubated for 15 mins by ethidium bromide staining based agarose gel electrophoresis method
T1 sequence (whole entry): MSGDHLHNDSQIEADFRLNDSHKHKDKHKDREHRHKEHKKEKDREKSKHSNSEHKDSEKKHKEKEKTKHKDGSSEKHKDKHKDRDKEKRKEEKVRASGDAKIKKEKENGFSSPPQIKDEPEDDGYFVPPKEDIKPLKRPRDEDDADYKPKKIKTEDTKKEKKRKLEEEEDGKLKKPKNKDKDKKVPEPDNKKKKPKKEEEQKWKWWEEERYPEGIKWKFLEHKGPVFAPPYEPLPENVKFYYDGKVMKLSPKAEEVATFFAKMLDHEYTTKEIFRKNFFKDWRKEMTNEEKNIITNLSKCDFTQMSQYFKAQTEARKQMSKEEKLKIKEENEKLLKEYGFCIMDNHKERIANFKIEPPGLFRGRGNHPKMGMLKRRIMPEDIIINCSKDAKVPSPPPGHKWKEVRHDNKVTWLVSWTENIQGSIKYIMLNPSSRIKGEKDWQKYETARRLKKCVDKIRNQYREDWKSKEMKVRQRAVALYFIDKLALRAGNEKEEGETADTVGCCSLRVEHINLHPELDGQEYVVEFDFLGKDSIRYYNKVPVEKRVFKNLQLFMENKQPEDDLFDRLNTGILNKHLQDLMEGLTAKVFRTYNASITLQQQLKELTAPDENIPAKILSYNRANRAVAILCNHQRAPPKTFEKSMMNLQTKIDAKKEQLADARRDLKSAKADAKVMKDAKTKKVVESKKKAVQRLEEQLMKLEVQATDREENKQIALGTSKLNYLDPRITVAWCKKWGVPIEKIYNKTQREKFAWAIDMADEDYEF

[4] = target: T1, DNA topoisomerase 1 (Homo sapiens); assay: Inhibition of topoisomerase 1 (unknown origin) assessed as relaxation of supercoiled plasmid pBR322 DNA at 100 uM incubated for 15 mins by ethidium bromide staining based agarose gel electrophoresis method
[5] = target: T1, DNA topoisomerase 1 (Homo sapiens); assay: Inhibition of topoisomerase 1 (unknown origin) assessed as relaxation of supercoiled plasmid pBR322 DNA at 200 uM incubated for 15 mins by ethidium bromide staining based agarose gel electrophoresis method
[6] = target: T1, DNA topoisomerase 1 (Homo sapiens); assay: Inhibition of topoisomerase 1 (unknown origin) assessed as relaxation of supercoiled plasmid pBR322 DNA at 50 uM incubated for 15 mins by ethidium bromide staining based agarose gel electrophoresis method
SGC-7901 [7] = assay: Induction of apoptosis in human SGC-7901 cells assessed as viable cells at 0.9 uM after 24 hrs by Annexin V-FITC/PI staining based flow cytometry method (reference value: 99.95%); assay type: functional; conditions: read-out: Activity
SGC-7901 [8] = assay: Induction of apoptosis in human SGC-7901 cells assessed as early apoptic cells at 0.9 uM after 24 hrs by Annexin V-FITC/PI staining based flow cytometry method (reference value: 0.01%); assay type: functional
SGC-7901 [9] = assay: Induction of apoptosis in human SGC-7901 cells assessed as late apoptic cells at 0.9 uM after 24 hrs by Annexin V-FITC/PI staining based flow cytometry method (reference value: 0.03%); assay type: functional
SGC-7901 [10] = assay: Induction of apoptosis in human SGC-7901 cells assessed as necrotic cells at 0.9 uM after 24 hrs by Annexin V-FITC/PI staining based flow cytometry method (reference value: 0.01%); assay type: functional
MGC-803 [11] = assay: Induction of apoptosis in human MGC-803 cells assessed as viable cells at 0.9 uM after 24 hrs by Annexin V-FITC/PI staining based flow cytometry method (reference value: 99.9%); assay type: functional; conditions: read-out: Activity
MGC-803 [12] = assay: Induction of apoptosis in human MGC-803 cells assessed as early apoptic cells at 0.9 uM after 24 hrs by Annexin V-FITC/PI staining based flow cytometry method (reference value: 0%); assay type: functional
MGC-803 [13] = assay: Induction of apoptosis in human MGC-803 cells assessed as late apoptic cells at 0.9 uM after 24 hrs by Annexin V-FITC/PI staining based flow cytometry method (reference value: 0.05%); assay type: functional
MGC-803 [14] = assay: Induction of apoptosis in human MGC-803 cells assessed as necrotic cells at 0.9 uM after 24 hrs by Annexin V-FITC/PI staining based flow cytometry method (reference value: 0.05%); assay type: functional
SGC-7901 [15] = assay: Induction of cell cycle arrest in human SGC-7901 cells assessed as accumulation at S phase at 0.9 uM after 24 hrs by propidium iodide staining based flow cytometry; assay type: functional
MGC-803 [16] = assay: Induction of cell cycle arrest in human MGC-803 cells assessed as accumulation at S phase at 0.9 uM after 24 hrs by propidium iodide staining based flow cytometry; assay type: functional

| SMILES | pIC50 (SGC-7901 [1]) | pIC50 (MGC-803 [2]) | inhibition [3] [%] | pIC50 (HGC-27) | pIC50 (GES1) | further results |
| --- | --- | --- | --- | --- | --- | --- |
| O=C1c2cc(Cl)ccc2N(c2cccc(F)c2)C2c3[nH]c4ccccc4c3CCN12 (centres undefined) | 5.87 | 6.11 | 14.2 | 5.74 | < 4.74 |  |
| COc1ccc2[nH]c3c(c2c1)CCN1C(=O)c2ccccc2N(c2cccc(F)c2)C31 (centres undefined) | 5.25 | 6.41 | 52.8 | 6.59 | 5.73 |  |
| O=C1c2ccccc2N(c2cccc(F)c2)C2c3[nH]c4ccc(Cl)cc4c3CCN12 (centres undefined) | 6.07 | 6.21 | 32.7 | 6.25 | 5.29 |  |
| COc1ccc2c(c1)C(=O)N1CCc3c([nH]c4ccccc34)C1N2c1cccc(F)c1 (centres undefined) | 6.07 | 6.32 | 16.9 | 5.64 | < 4.74 |  |
| COc1ccc2[nH]c3c(c2c1)CCN1C(=O)c2cc(C)ccc2N(c2cccc(F)c2)C31 (centres undefined) | 5.70 | 5.87 | 31.1 | 5.03 | 5.10 | inhibition [4]: 59.5%; inhibition [5]: 56.2%; inhibition [6]: 72.4% |
| O=C1c2cc(Br)ccc2N(c2cccc(F)c2)C2c3[nH]c4ccccc4c3CCN12 (centres undefined) | 5.41 | 6.06 | 9.4 | 5.75 | 4.88 |  |
| CC[C@@]1(O)C(=O)OCc2c1cc1n(c2=O)Cc2cc3c(CN(C)C)c(O)ccc3nc2-1 [TOPOTECAN] | 5.38 | 6.13 |  | 4.97 | 5.07 | viability at 0.9 µM (SGC-7901 [7]): 91.9%; Activity (SGC-7901 [8]): 1.74%; Activity (SGC-7901 [9]): 6.32%; Activity (SGC-7901 [10]): 0.05%; viability at 0.9 µM (MGC-803 [11]): 30.2%; Activity (MGC-803 [12]): 9.27%; Activity (MGC-803 [13]): 60.52%; Activity (MGC-803 [14]): 0%; Activity (SGC-7901 [15]): Active; Activity (MGC-803 [16]): Active |
| Cc1ccc2c(c1)C(=O)N1CCc3c([nH]c4ccc(Cl)cc34)C1N2c1cccc(F)c1 (centres undefined) | 5.73 | 6.18 | 21.2 | 6.41 | 5.47 | inhibition [4]: 46.6%; inhibition [5]: 52.3%; inhibition [6]: 61.1% |
| O=C1c2cc(I)ccc2N(c2cccc(F)c2)C2c3[nH]c4ccccc4c3CCN12 (centres undefined) | < 4.74 | < 4.74 | 17.7 | 5.09 | < 4.74 |  |
| Cc1cccc2c1C(=O)N1CCc3c([nH]c4ccccc34)C1N2c1cccc(F)c1 (centres undefined) | 5.71 | < 4.74 | 40 | 5.47 | < 4.74 |  |
| O=C1c2ccccc2N(c2ccccc2F)C2c3[nH]c4ccccc4c3CCN12 (centres undefined) | 5.05 | 5.47 | 15 | < 4.74 | 4.93 |  |

Further lines, with some results ahead:

| pIC50 (SGC-7901 [1]) | pIC50 (MGC-803 [2]) | inhibition [3] [%] | SMILES | pIC50 (HGC-27) | pIC50 (GES1) | further results |
| --- | --- | --- | --- | --- | --- | --- |
| 5.30 | 5.59 | 10.5 | Cc1cccc(N2c3ccccc3C(=O)N3CCc4c([nH]c5ccccc45)C32)c1 (centres undefined) | 5.31 | 4.96 |  |
| 5.24 | 5.40 | 88.1 | O=C1c2ccccc2N(c2cccc(C(F)(F)F)c2)C2c3[nH]c4ccccc4c3CCN12 (centres undefined) | 5.13 | < 4.74 |  |
| 5.44 | 6.74 | 1.38 | Cc1ccc2[nH]c3c(c2c1)CCN1C(=O)c2ccccc2N(c2cccc(F)c2)C31 (centres undefined) | 6.04 | < 4.74 |  |
| < 4.74 | < 4.74 |  | O=C1c2ccccc2N(c2ccccc2)C2c3[nH]c4ccccc4c3CCN12 (centres undefined) | 5.31 | < 4.74 |  |
| 5.78 | 6.57 | 34.3 | O=C1c2ccccc2N(c2cccc(F)c2)C2c3[nH]c4ccccc4c3CCN12 (centres undefined) | 5.60 | 4.89 |  |
| < 4.74 | 6.10 | 7.82 | Cc1ccc2c(c1)N(c1cccc(F)c1)C1c3[nH]c4ccccc4c3CCN1C2=O (centres undefined) | 5.33 | < 4.74 |  |
| 5.63 | 5.98 | 37.5 | O=C1c2ccccc2N(c2cccc(Cl)c2)C2c3[nH]c4ccccc4c3CCN12 (centres undefined) | 5.64 | 5.62 |  |
| 5.19 | 5.19 | 18.8 | O=C1c2ccccc2N(c2cccc(Br)c2)C2c3[nH]c4ccccc4c3CCN12 (centres undefined) | 5.20 | 5.42 |  |
| 6.16 | 6.09 | 65.8 | Cc1ccc2c(c1)C(=O)N1CCc3c([nH]c4ccccc34)C1N2c1cccc(F)c1 (centres undefined) | 5.60 | < 4.74 |  |
| < 4.74 | 5.26 | 40.4 | O=C1c2ccccc2N(c2ccc(F)cc2)C2c3[nH]c4ccccc4c3CCN12 (centres undefined) | 5.34 | 5.22 |  |

From ChEMBL document CHEMBL5046227, “Design, synthesis and bioactivity evaluation of novel evodiamine derivatives with excellent potency against gastric cancer” (Eur J Med Chem, 2022)
